The record followed here is ChEMBL document CHEMBL1909294, “Translating clinical findings into knowledge in drug safety evaluation--drug induced liver injury prediction system (DILIps)” (PLoS Comput Biol, 2011).

Where a SMILES comes first, the peptide text is derived from it. Bridges are numbered along the chain shown (N, C = ends). [ ]: non-standard residue; d: D form. The star is where a group is joined. Ileψ(thiazoline)Cys = CC[C@H](C)[C@H](N)C1=N[C@H](C(=O)*)CS1; dOrn = NCCC[C@@H](N)C(=O)O

The subject of series [1] is Hepatotoxicity.
Series [2] deals with Hepatotoxicity. The source holds these as a separate data set.
Series [3] concerns Hepatotoxicity. The source holds these as a separate data set.
Series [4] relates to Hepatotoxicity. The source holds these as a separate data set.
Series [5] relates to Hepatotoxicity. This is another data set of the same source.
In series [6] the test system is Hepatotoxicity. The source holds these as a separate data set.
The subject of series [7] is Hepatotoxicity. This is another data set of the same source.
Series [8] deals with Hepatotoxicity. The source holds these as a separate data set.
The subject of series [9] is Hepatotoxicity. This is another data set of the same source.
Series [10] concerns Hepatotoxicity. The source holds these as a separate data set.
Series [11] relates to Hepatotoxicity. The source holds these as a separate data set.
In series [12] the test system is Hepatotoxicity. This is another data set of the same source.
The subject of series [13] is Hepatotoxicity. The source holds these as a separate data set.
The test system of series [14] is Hepatotoxicity. This is another data set of the same source.
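Wherever HepSE Combined Scores is given: combined hepatic side effect score as listed in the training data of the Drug Induced Liver Injury Prediction System (DILIps).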
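Wherever HepSE bilirubinemia is given: bilirubinemia hepatic side effect score drawn from the DILIps training data, a prediction system for drug-induced liver injury; call rule not given here.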
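Wherever HepSE cholecystitis is given: Cholecystitis-related hepatic side effect score drawn from the DILIps (drug-induced liver injury prediction) training data set; call rule not given here.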
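Wherever HepSE cholelithiasis is given: hepatic side effect score for cholelithiasis, drawn from the DILIps training data for predicting drug-induced liver injury; call rule not given here.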
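Wherever HepSE cirrhosis is given: cirrhosis hepatic side effect score taken from the DILIps (drug-induced liver injury prediction) training set; call rule not given here.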
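Wherever HepSE elevated liver function tests is given: hepatic side effect score for raised liver function tests, as recorded in the DILIps training set used for predicting drug-induced liver injury.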
Wherever HepSE hepatic failure is given: call rule not given here.
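Wherever HepSE hepatic necrosis is given: score of hepatic side effects for hepatic necrosis, drawn from the training data of DILIps, a prediction system for drug-induced liver injury; call rule not given here.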
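Wherever HepSE hepatitis is given: Hepatitis-related hepatic side effect score taken from the training data of DILIps, a prediction system for drug-induced liver injury; call rule not given here.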
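Wherever HepSE hepatomegaly is given: hepatic side effect score for hepatomegaly, taken from the training set of the DILIps drug-induced liver injury prediction system; call rule not given here.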
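Wherever HepSE jaundice is given: Jaundice-related hepatic side-effect score drawn from the training data of the DILIps (drug-induced liver injury prediction system); call rule not given here.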
Wherever HepSE liver disease is given: call rule not given here.
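Wherever HepSE liver fatty is given: hepatic side effect score for fatty liver, taken from the DILIps training set for predicting drug-induced liver injury; call rule not given here.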
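Wherever HepSE liver function tests abnormal is given: hepatic side effect score taken from the DILIps (drug-induced liver injury prediction system) training data, here covering abnormal liver function test findings.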

Take `O=C1C(O)=C([C@H]2CC[C@H](c3ccc(Cl)cc3)CC2)C(=O)c2ccccc21` [ATOVAQUONE]: the HepSE_liver fatty in series [1] amounted to 0. Further, in [2], the HepSE_liver disease is reported as 0. This compound also came in with a HepSE_cirrhosis in series [3] of 0. This compound returned a HepSE_bilirubinemia in [4] of 0. This compound had a HepSE_hepatic necrosis in series [5] of 0. Besides, in series [6], the “HepSE_Combined Scores” value came to 2. For the same compound, the “HepSE_liver function tests abnormal” value in series [7] was 0. In series [8], the “HepSE_elevated liver function tests” value is 0. The compound further showed a HepSE_hepatic failure in [9] of 1. Further, the HepSE_hepatomegaly in series [10] stood at 0. For the same compound, in [11], the HepSE_cholecystitis amounted to 0. Besides, in series [12], the HepSE_jaundice was determined as 0. In [13], this compound registered a HepSE_cholelithiasis of 0. In series [14], the HepSE_hepatitis was determined as 1.
In turn, `Cn1cnc([N+](=O)[O-])c1Sc1ncnc2nc[nH]c12` [AZATHIOPRINE] gave a HepSE_liver fatty in series [1] (Liver) of 0. The HepSE_liver disease in series [2] (Liver) worked out at 0. The compound also returned a HepSE_cirrhosis in series [3] (Liver) of 0. In [4] (Liver), the HepSE_bilirubinemia is listed as 0. Also, in [5] (Liver), the HepSE_hepatic necrosis turned out to be 0. For the same compound, the “HepSE_Combined Scores” value in [6] (Liver) is 0. The “HepSE_liver function tests abnormal” value in [7] (Liver) was 0. Further, the “HepSE_elevated liver function tests” value in [8] (Liver) is 0. The HepSE_hepatic failure in series [9] (Liver) is given as 0. For the same compound, the HepSE_hepatomegaly in series [10] (Liver) came to 0. Besides, the HepSE_cholecystitis in [11] (Liver) was found to be 0. Further, the HepSE_jaundice in series [12] (Liver) was determined as 0. The compound further yielded a HepSE_cholelithiasis in series [13] (Liver) of 0. Besides, the HepSE_hepatitis in [14] (Liver) came to 0.
With `O=C(O)CCCCCCCC(=O)O` [AZELAIC ACID], the HepSE_liver fatty in [1] stood at 0. Also, in series [2], the HepSE_liver disease is listed as 0. In series [3], this compound showed a HepSE_cirrhosis of 0. This compound returned a HepSE_bilirubinemia in series [4] of 0. This compound had a HepSE_hepatic necrosis in series [5] of 0. Further, the “HepSE_Combined Scores” value in [6] was 0. Further, in series [7], the “HepSE_liver function tests abnormal” value was determined as 0. Besides, the “HepSE_elevated liver function tests” value in [8] amounted to 0. Further, the HepSE_hepatic failure in [9] is reported as 0. This compound also gave a HepSE_hepatomegaly in [10] of 0. For the same compound, the HepSE_cholecystitis in series [11] is on record as 0. Besides, in series [12], the HepSE_jaundice is recorded as 0. Also, in [13], the HepSE_cholelithiasis is on record as 0. The compound also displayed a HepSE_hepatitis in series [14] of 0.
Compound `CN1CCCC(n2nc(Cc3ccc(Cl)cc3)c3ccccc3c2=O)CC1` (stereo unspecified) [AZELASTINE] came in with a HepSE_liver fatty in series [1] of 0. In series [2], this compound had a HepSE_liver disease of 0. In series [3], the HepSE_cirrhosis turned out to be 0. In series [4], this compound returned a HepSE_bilirubinemia of 0. In [5], the HepSE_hepatic necrosis is given as 0. Besides, the “HepSE_Combined Scores” value in series [6] was 0. Further, in series [7], the “HepSE_liver function tests abnormal” value is 0. Also, the “HepSE_elevated liver function tests” value in series [8] is listed as 0. The compound further had a HepSE_hepatic failure in series [9] of 0. Moreover, the HepSE_hepatomegaly in series [10] is reported as 0. Further, the HepSE_cholecystitis in [11] turned out to be 0. The compound also displayed a HepSE_jaundice in [12] of 0. In addition, the HepSE_cholelithiasis in series [13] is given as 0. This compound also came in with a HepSE_hepatitis in series [14] of 0.
`CC[C@H]1OC(=O)[C@H](C)[C@@H](O[C@H]2C[C@@](C)(OC)[C@@H](O)[C@H](C)O2)[C@H](C)[C@@H](O[C@@H]2O[C@H](C)C[C@H](N(C)C)[C@H]2O)[C@](C)(O)C[C@@H](C)CN(C)[C@H](C)[C@@H](O)[C@]1(C)O` [AZITHROMYCIN]: in series [1], the HepSE_liver fatty is recorded as 0. Besides, the HepSE_liver disease in series [2] came to 0. This compound also displayed a HepSE_cirrhosis in series [3] of 0. In series [4], this compound registered a HepSE_bilirubinemia of 0. Moreover, the HepSE_hepatic necrosis in series [5] is on record as 1. The “HepSE_Combined Scores” value in [6] was 5. Also, in series [7], the “HepSE_liver function tests abnormal” value was found to be 1. Moreover, the “HepSE_elevated liver function tests” value in series [8] came to 0. Moreover, in [9], the HepSE_hepatic failure is on record as 1. Also, the HepSE_hepatomegaly in series [10] amounted to 0. The compound also had a HepSE_cholecystitis in series [11] of 0. The compound also displayed a HepSE_jaundice in series [12] of 1. In series [13], this compound came in with a HepSE_cholelithiasis of 0. Also, the HepSE_hepatitis in series [14] stood at 1.
In series [1], `C[C@H]1[C@H](NC(=O)/C(=N\OC(C)(C)C(=O)O)c2csc(N)n2)C(=O)N1S(=O)(=O)O` [AZTREONAM] displayed a HepSE_liver fatty of 0. The HepSE_liver disease in [2] is on record as 0. For the same compound, the HepSE_cirrhosis in series [3] came out at 0. In [4], this compound registered a HepSE_bilirubinemia of 0. In addition, the HepSE_hepatic necrosis in series [5] was found to be 0. Moreover, the “HepSE_Combined Scores” value in series [6] was determined as 2. Besides, the “HepSE_liver function tests abnormal” value in series [7] came to 0. Also, in [8], the “HepSE_elevated liver function tests” value came out at 0. The compound also had a HepSE_hepatic failure in [9] of 0. The same compound yielded a HepSE_hepatomegaly in series [10] of 0. The HepSE_cholecystitis in series [11] amounted to 0. The compound further yielded a HepSE_jaundice in series [12] of 1. Also, in [13], the HepSE_cholelithiasis amounted to 0. This compound had a HepSE_hepatitis in series [14] of 1.
On to `CC[C@H](C)[C@H](N)C1=N[C@H](C(=O)N[C@@H](CC(C)C)C(=O)N[C@H](CCC(=O)O)C(=O)N[C@H](C(=O)N[C@H]2CCCCNC(=O)[C@H](CC(N)=O)NC(=O)[C@@H](CC(=O)O)NC(=O)[C@H](Cc3cnc[nH]3)NC(=O)[C@@H](Cc3ccccc3)NC(=O)[C@H]([C@@H](C)CC)NC(=O)[C@@H](CCCN)NC2=O)[C@@H](C)CC)CS1` [BACITRACIN] ({Ileψ(thiazoline)Cys}-L[dE]IK[dOrn]I[dF]H[dD]N; lactam 4-C), for which the HepSE_liver fatty in series [1] is 0. For the same compound, the HepSE_liver disease in series [2] is 0. Besides, in [3], the HepSE_cirrhosis is given as 0. The same compound yielded a HepSE_bilirubinemia in [4] of 0. In series [5], this compound displayed a HepSE_hepatic necrosis of 0. Moreover, in series [6], the “HepSE_Combined Scores” value is recorded as 0. Moreover, the “HepSE_liver function tests abnormal” value in series [7] is reported as 0. The “HepSE_elevated liver function tests” value in [8] was found to be 0. The compound also yielded a HepSE_hepatic failure in series [9] of 0. The compound also returned a HepSE_hepatomegaly in series [10] of 0. In addition, in series [11], the HepSE_cholecystitis is listed as 0. In addition, the HepSE_jaundice in series [12] turned out to be 0. This compound displayed a HepSE_cholelithiasis in [13] of 0. Moreover, the HepSE_hepatitis in [14] worked out at 0.
For `NCC(CC(=O)O)c1ccc(Cl)cc1` (stereo unspecified) [BACLOFEN], the HepSE_liver fatty in [1] came to 0. The HepSE_liver disease in [2] was 0. Also, the HepSE_cirrhosis in series [3] is 0. Besides, in series [4], the HepSE_bilirubinemia was 0. In [5], this compound registered a HepSE_hepatic necrosis of 0. In addition, the “HepSE_Combined Scores” value in series [6] worked out at 0. In addition, the “HepSE_liver function tests abnormal” value in series [7] amounted to 0. For the same compound, in [8], the “HepSE_elevated liver function tests” value came out at 0. Besides, the HepSE_hepatic failure in [9] is 0. The compound also came in with a HepSE_hepatomegaly in [10] of 0. In [11], this compound displayed a HepSE_cholecystitis of 0. Also, in series [12], the HepSE_jaundice is reported as 0. The compound further came in with a HepSE_cholelithiasis in series [13] of 0. The compound further had a HepSE_hepatitis in series [14] of 0.
`O=C(O)CCNC(=O)c1ccc(/N=N/c2ccc(O)c(C(=O)O)c2)cc1` [BALSALAZIDE] displayed a HepSE_liver fatty in [1] of 0. Further, in series [2], the HepSE_liver disease was 0. The compound also registered a HepSE_cirrhosis in series [3] of 1. Further, the HepSE_bilirubinemia in [4] was 0. The HepSE_hepatic necrosis in [5] turned out to be 1. Besides, the “HepSE_Combined Scores” value in series [6] came to 5. The “HepSE_liver function tests abnormal” value in [7] is on record as 0. The “HepSE_elevated liver function tests” value in series [8] amounted to 1. This compound also showed a HepSE_hepatic failure in [9] of 1. The same compound gave a HepSE_hepatomegaly in series [10] of 0. In [11], this compound returned a HepSE_cholecystitis of 0. In addition, the HepSE_jaundice in series [12] stood at 1. This compound also yielded a HepSE_cholelithiasis in series [13] of 0. Further, the HepSE_hepatitis in series [14] was 0.
